Experimental findings from the supplement of paper PMC11208160 are described below.
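Note: IS621 recombinase and bridge RNA in Escherichia coli cells.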

The nature of this data set: recombinant barcode read abundance after kanamycin selection (control-corrected) (log10(CPM+1)); higher = more efficient recombination; sequences stand for … in AGTGCAGAGAAAATCGGCCAGTTTTCTCTGCCTGCAGTCCGCATGCCGT…AGATTTATGCAGCGGACTGCCTTTCTCCCAAAGTGATAAACCGGACAGTATCATGGACCGGTTTTCCCGGTAATCCGTATTTGCAAGGTTGGTTTCACT; site = the 11-nt target. The method in brief:
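Values are log10(CPM+1) from a pooled E. coli screen of targets paired with IS621 bridge RNA target-binding loops. Recombination efficiency here means counts per million of recombinant-junction barcodes, averaged and control-corrected. Plates were chloramphenicol/ampicillin LB agar for the control and chloramphenicol/ampicillin/kanamycin with 0.1 mM IPTG, two replicates each.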
“GTGGTAGCTTGGGTTCTAACCTGTTGCCT (site GTGGTAGCTAG)”: the “recombinant barcode read abundance (log10)” value was determined as 1.42.

On to “GTGGTAGCTTGGGTTCTAACCTGTTGCCT (site GTGGTATCTAG)”, for which the “recombinant barcode read abundance (log10)” value worked out at 0.0998.

Take “GTGGTGGCTTGGGTTCTAACCTGTTGCCT (site GTGGTGGCTAG)”: the “recombinant barcode read abundance (log10)” value was found to be 0.764.

Regarding “GTGGTGGCTTGGGTTCTAACCTGTTGCCT (site GTTGGGGCTAG)”, the “recombinant barcode read abundance (log10)” value was 0.151.

Consider “GTGTAGGCTTGGGTTCTAACCTGTTGCAG (site GTGTAGGCTCT)”, for which the “recombinant barcode read abundance (log10)” value was found to be 2.66.

Take “GTGTAGGCTTGGGTTCTAACCTGTTGCAG (site GTGTAGTCTCG)”: the “recombinant barcode read abundance (log10)” value was 0.0205.

On to “GTGTATCCTTGGGTTCTAACCTGTTGCCA (site GTGAAGCCTTG)”, for which the “recombinant barcode read abundance (log10)” value came to 0.186.

Regarding “GTGTATCCTTGGGTTCTAACCTGTTGCCA (site GTGTATCCTTG)”, the “recombinant barcode read abundance (log10)” value was 0.196.

As to “GTGTATTCTTGGGTTCTAACCTGTTGCCT (site ACTGTCACTCC)”, the “recombinant barcode read abundance (log10)” value worked out at 0.0809.

“GTGTATTCTTGGGTTCTAACCTGTTGCCT (site GTGTATTCTAG)”: the “recombinant barcode read abundance (log10)” value was 1.44.

As for “GTGTCTACTTGGGTTCTAACCTGTTGCCT (site GTGTCTACTAG)”, the “recombinant barcode read abundance (log10)” value came to 0.754.

On to “GTGTCTACTTGGGTTCTAACCTGTTGCCT (site TTGTATACTAG)”, for which the “recombinant barcode read abundance (log10)” value came to 0.0293.

Consider “GTGTCTCCTTGGGTTCTAACCTGTTGCGA (site GAGTGTCCTTC)”, for which the “recombinant barcode read abundance (log10)” value turned out to be 0.00692.

On to “GTGTCTCCTTGGGTTCTAACCTGTTGCGA (site GTGTCTCCTTC)”, for which the “recombinant barcode read abundance (log10)” value was found to be 0.996.

For “GTGTGGACTTGGGTTCTAACCTGTTGCAG (site GTGAGGACTCA)”, the “recombinant barcode read abundance (log10)” value turned out to be 0.0484.

Take “GTGTGGACTTGGGTTCTAACCTGTTGCAG (site GTGTGGACTCT)”: the “recombinant barcode read abundance (log10)” value was 2.18.

With “GTGTGGCCTTGGGTTCTAACCTGTTGCCA (site GTGTGGCCTTG)”, the “recombinant barcode read abundance (log10)” value came out at 0.574.

Regarding “GTGTGGCCTTGGGTTCTAACCTGTTGCCA (site TCCGATACTAC)”, the “recombinant barcode read abundance (log10)” value worked out at 0.

Take “GTGTGGCCTTGGGTTCTAACCTGTTGCTT (site GAGTGCCCTAA)”: the “recombinant barcode read abundance (log10)” value turned out to be 0.107.

Turning to “GTGTGGCCTTGGGTTCTAACCTGTTGCTT (site GTGTGGCCTAA)”, the “recombinant barcode read abundance (log10)” value amounted to 0.294.

In the case of “GTGTGTACTTGGGTTCTAACCTGTTGCCT (site GTGTGTACTAG)”, the “recombinant barcode read abundance (log10)” value was 1.21.

With “GTGTGTACTTGGGTTCTAACCTGTTGCCT (site GTGTGTCCTAG)”, the “recombinant barcode read abundance (log10)” value was found to be 0.101.

“GTGTGTACTTGGGTTCTAACCTGTTGCCT (site GTGTGTGCTAG)”: the “recombinant barcode read abundance (log10)” value was 0.24.

For the sequence “GTGTGTACTTGGGTTCTAACCTGTTGCCT (site GTGTGTTCTAG)”, the “recombinant barcode read abundance (log10)” value amounted to 0.0215.

Turning to “GTGTGTGCTTGGGTTCTAACCTGTTGCCT (site GTGTGTACTAG)”, the “recombinant barcode read abundance (log10)” value came out at 0.821.

As to “GTGTGTGCTTGGGTTCTAACCTGTTGCCT (site GTGTGTCCTAG)”, the “recombinant barcode read abundance (log10)” value worked out at 0.0466.

Regarding “GTGTGTGCTTGGGTTCTAACCTGTTGCCT (site GTGTGTGCTAG)”, the “recombinant barcode read abundance (log10)” value was 1.44.

In the case of “GTGTGTGCTTGGGTTCTAACCTGTTGCCT (site GTGTGTTCTAG)”, the “recombinant barcode read abundance (log10)” value was 0.0513.

For “GTGTGTTCTTGGGTTCTAACCTGTTGCCA (site GTGTGTTCTTG)”, the “recombinant barcode read abundance (log10)” value was 0.336.

With “GTGTGTTCTTGGGTTCTAACCTGTTGCCA (site TTGTGTTCTTA)”, the “recombinant barcode read abundance (log10)” value worked out at 0.0943.

For “GTTACAACTTGGGTTCTAACCTGTTGCCT (site CTTACGACTAG)”, the “recombinant barcode read abundance (log10)” value stood at 0.0197.

“GTTACAACTTGGGTTCTAACCTGTTGCCT (site GTTACAACTAG)”: the “recombinant barcode read abundance (log10)” value is 0.263.

For “GTTACGGCTTGGGTTCTAACCTGTTGCCT (site GTTACGGCTAG)”, the “recombinant barcode read abundance (log10)” value amounted to 0.0907.

For “GTTACGGCTTGGGTTCTAACCTGTTGCCT (site GTTCCGGCTAG)”, the “recombinant barcode read abundance (log10)” value worked out at 0.0623.

Regarding “GTTACGGCTTGGGTTCTAACCTGTTGCCT (site GTTGCGGCTAG)”, the “recombinant barcode read abundance (log10)” value was 0.0497.

Take “GTTACGGCTTGGGTTCTAACCTGTTGCCT (site GTTTCGGCTAG)”: the “recombinant barcode read abundance (log10)” value stood at 0.

For “GTTAGAGCTTGGGTTCTAACCTGTTGCCT (site GTTAGAGCTAG)”, the “recombinant barcode read abundance (log10)” value was 1.32.

As for “GTTAGAGCTTGGGTTCTAACCTGTTGCCT (site GTTCGAGCTAG)”, the “recombinant barcode read abundance (log10)” value is 0.235.

As to “GTTAGAGCTTGGGTTCTAACCTGTTGCCT (site GTTGGAGCTAG)”, the “recombinant barcode read abundance (log10)” value was determined as 0.0737.

“GTTAGAGCTTGGGTTCTAACCTGTTGCCT (site GTTTGAGCTAG)”: the “recombinant barcode read abundance (log10)” value is 0.225.

On to “GTTAGGCCTTGGGTTCTAACCTGTTGCCT (site GATAGGCCTAG)”, for which the “recombinant barcode read abundance (log10)” value is 0.0232.

In the case of “GTTAGGCCTTGGGTTCTAACCTGTTGCCT (site GTTAGGCCTAG)”, the “recombinant barcode read abundance (log10)” value amounted to 0.292.

As to “GTTCAACCTTGGGTTCTAACCTGTTGCCT (site GATCAACCTAG)”, the “recombinant barcode read abundance (log10)” value is 0.242.

Take “GTTCAACCTTGGGTTCTAACCTGTTGCCT (site GCTCAACCTAG)”: the “recombinant barcode read abundance (log10)” value was found to be 0.154.

With “GTTCAACCTTGGGTTCTAACCTGTTGCCT (site GGTCAACCTAG)”, the “recombinant barcode read abundance (log10)” value is 0.0287.

Take “GTTCAACCTTGGGTTCTAACCTGTTGCCT (site GTTCAACCTAG)”: the “recombinant barcode read abundance (log10)” value amounted to 1.48.

As for “GTTCCTCCTTGGGTTCTAACCTGTTGCCT (site GTTCCTCCTAG)”, the “recombinant barcode read abundance (log10)” value came out at 0.823.

“GTTCCTCCTTGGGTTCTAACCTGTTGCCT (site GTTCCTGCTAG)”: the “recombinant barcode read abundance (log10)” value is 0.0108.

Turning to “GTTGAGTCTTGGGTTCTAACCTGTTGCGT (site CTTGAGCCTAC)”, the “recombinant barcode read abundance (log10)” value came to 0.0835.

As for “GTTGAGTCTTGGGTTCTAACCTGTTGCGT (site GTTGAGTCTAC)”, the “recombinant barcode read abundance (log10)” value was 1.87.

As for “GTTTATACTTGGGTTCTAACCTGTTGCCT (site GTATATACTAG)”, the “recombinant barcode read abundance (log10)” value was determined as 0.0265.

For “GTTTATACTTGGGTTCTAACCTGTTGCCT (site GTCTATACTAG)”, the “recombinant barcode read abundance (log10)” value came to 0.091.

Consider “GTTTATACTTGGGTTCTAACCTGTTGCCT (site GTGTATACTAG)”, for which the “recombinant barcode read abundance (log10)” value was 0.0593.

For the sequence “GTTTATACTTGGGTTCTAACCTGTTGCCT (site GTTTATACTAG)”, the “recombinant barcode read abundance (log10)” value was 0.305.

With “GTTTCGTCTTGGGTTCTAACCTGTTGCCT (site GTTTCGACTAG)”, the “recombinant barcode read abundance (log10)” value stood at 0.0118.

“GTTTCGTCTTGGGTTCTAACCTGTTGCCT (site GTTTCGTCTAG)”: the “recombinant barcode read abundance (log10)” value turned out to be 0.0924.

“GTTTGACCTTGGGTTCTAACCTGTTGCGG (site GTTTGACCTCC)”: the “recombinant barcode read abundance (log10)” value was 1.47.

Turning to “GTTTGACCTTGGGTTCTAACCTGTTGCGG (site TAGCTGACTGG)”, the “recombinant barcode read abundance (log10)” value was found to be 0.0274.

“GTTTGAGCTTGGGTTCTAACCTGTTGCCT (site GTTAGAGCTAG)”: the “recombinant barcode read abundance (log10)” value was determined as 0.231.
